Data: patent publication US20240109853A1 (Shanghai Yao Yuan Biotechnology Co., Ltd., priority 2020, published 2024)
Structures can show the parent of a compound that is named as a salt. Where two headings read alike, the source gives them in different places.

How the values were obtained:
ALPK1 = ALPK1 (Homo sapiens (Human), UniProt Q96QP1); experiment: ALPK1 in vitro kinase assay (HTRF of TIFA phosphorylation); format: biochemical
[1] = system: ALPK1-dependent NFκB reporter gene activation in HEK293 cells stably expressing an NF-kB reporter (G9 cells); experiment: NFκB gene reporter alkaline phosphatase assay; format: cell-based; details: read-out: NFkB assay IC50
In short: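 Using pNPP substrate, NF-kB reporter activity in stably transfected HEK293 (G9) cells is determined following 30 min compound pretreatment and stimulation with D-glycero-D-manno-6-fluoro-heptose-1β-S-ADP. Logistic curve fitting yields IC50.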

Chain of ALPK1 (Q96QP1 whole entry): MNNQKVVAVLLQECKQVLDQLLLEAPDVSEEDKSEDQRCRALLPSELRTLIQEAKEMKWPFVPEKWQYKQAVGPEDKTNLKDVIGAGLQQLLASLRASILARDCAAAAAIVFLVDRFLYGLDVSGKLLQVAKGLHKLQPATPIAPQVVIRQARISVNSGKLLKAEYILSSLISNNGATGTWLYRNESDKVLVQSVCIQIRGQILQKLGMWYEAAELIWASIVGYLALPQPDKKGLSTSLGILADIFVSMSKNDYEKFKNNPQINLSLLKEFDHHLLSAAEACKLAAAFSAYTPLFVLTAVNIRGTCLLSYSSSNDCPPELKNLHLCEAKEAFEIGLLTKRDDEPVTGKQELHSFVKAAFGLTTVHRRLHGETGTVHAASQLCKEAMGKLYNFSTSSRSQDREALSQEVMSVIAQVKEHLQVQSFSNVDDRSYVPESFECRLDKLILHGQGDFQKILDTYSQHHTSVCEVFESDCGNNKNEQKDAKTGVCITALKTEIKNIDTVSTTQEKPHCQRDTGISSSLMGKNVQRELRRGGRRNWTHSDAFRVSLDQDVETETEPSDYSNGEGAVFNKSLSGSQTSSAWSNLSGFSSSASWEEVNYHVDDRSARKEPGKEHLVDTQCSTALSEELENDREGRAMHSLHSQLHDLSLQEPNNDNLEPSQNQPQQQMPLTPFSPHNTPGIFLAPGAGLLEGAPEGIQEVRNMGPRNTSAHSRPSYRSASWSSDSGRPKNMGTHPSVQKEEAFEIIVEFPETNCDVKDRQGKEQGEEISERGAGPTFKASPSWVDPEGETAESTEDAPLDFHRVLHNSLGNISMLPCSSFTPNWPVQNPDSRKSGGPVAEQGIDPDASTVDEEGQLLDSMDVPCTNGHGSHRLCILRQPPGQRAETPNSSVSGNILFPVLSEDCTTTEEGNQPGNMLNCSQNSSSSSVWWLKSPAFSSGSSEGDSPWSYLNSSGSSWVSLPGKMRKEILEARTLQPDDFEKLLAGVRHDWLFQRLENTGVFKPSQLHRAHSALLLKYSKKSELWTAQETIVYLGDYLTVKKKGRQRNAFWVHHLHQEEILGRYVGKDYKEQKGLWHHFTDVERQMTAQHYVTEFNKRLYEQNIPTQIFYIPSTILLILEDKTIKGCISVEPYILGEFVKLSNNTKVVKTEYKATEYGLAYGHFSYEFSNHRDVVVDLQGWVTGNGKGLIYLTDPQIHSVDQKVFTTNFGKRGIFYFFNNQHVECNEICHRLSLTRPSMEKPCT

SMILES	IC50 (ALPK1) [nM]	IC50 ([1]; Homo sapiens, HEK293) [nM]	IC50 [1] [nM]
C#C[C@](C)(c1ccc(Cl)cc1)c1csc(NC(=O)NCCC(C)(C)O)n1 [Example A250, (R)-1-(4-(2-(4-chlorophenyl)but-3-yn-2-yl)thiazol-2-yl)-3-(3-hydroxy-3-methylbutyl)urea]	417	1180	
CC(C)(c1ccc(Br)cc1)c1csc(NC(=O)NCc2cnc(N3CCC(N)CC3)nc2)n1 [Example A099, 1-((2-(4-aminopiperidin-1-yl)pyrimidin-5-yl)methyl)-3-(4-(2-(4-bromophenyl)propan-2-yl)thiazol-2-yl)urea]	13	450	
[2H]C([2H])(O)CNC(=O)Nc1nc([C@@](C)(C#C)c2ccc(Cl)cc2)cs1 (stereo in doubt) [Example A321, 1-[4-[1-(4-chlorophenyl)-1-methyl-prop-2-ynyl]thiazol-2-yl]-3-(2,2-dideuterio-2-hydroxy-ethyl)urea]	28	300	
COc1ccc(C(C)(C)c2csc(NC(=O)NCCCO)n2)cc1 [Example A133, 1-(3-hydroxypropyl)-3-(4-(2-(4-methoxyphenyl)propan-2-yl)thiazol-2-yl)urea]	57	600	
Cc1cc(CNC(=O)Nc2nc(C(C)(C)c3ccc(Br)cc3)cs2)ccc1N1CCNCC1 [Example A096, 1-(4-(2-(4-bromophenyl)propan-2-yl)thiazol-2-yl)-3-(3-methyl-4-(piperazin-1-yl)benzyl)urea]	69	1430	
O=C(NCc1cc(F)c(N2CCNCC2)c(F)c1)Nc1nc(C2(c3ccc(Br)cc3)CCCC2)cs1 [Example A192, 1-(4-(1-(4-bromophenyl)cyclopent-yl)thiazol-2-yl)-3-(3,5-difluoro-4-(piperazin-1-yl)benzyl)urea]	106	4340	
COc1ccc(C(C)(C)c2csc(NC(=O)NCc3cc(F)c(N4CCNCC4)cc3F)n2)cc1 [Example A231, 1-(2,5-difluoro-4-(piperazin-1-yl)benzyl)-3-(4-(2-(4-methoxyphenyl)propan-2-yl)thiazol-2-yl)urea hydrochloride]	27	3360	
C#C[C@](C)(c1ccc(Cl)cc1)c1csc(NC(=O)NC2(CO)CC2)n1 [Example A296]	114	4790	
COc1ccc(C(C)(C)c2csc(NC(=O)NCc3ccc(N(C)CCO)nc3)n2)cc1 [Example A023, 1-((6-((2-hydroxyethyl)(methyl)a-mino)pyridin-3-yl)methyl)-3-(4-(2-(4-methoxyphenyl)propan-2-yl)thiazol-2-yl)urea]	229	1320	
CN(C)C1CCN(c2ccc(CNC(=O)Nc3nc(C(C)(C)c4ccc(Br)cc4)cs3)cn2)C1 (centres unmarked) [Example A106, 1-(4-(2-(4-bromophenyl)propan-2-yl)thiazol-2-yl)-3-((6-(3-(dimethylamino)pyrrolidin-1-yl)pyridin-3-yl)methyl)urea]	48	6720	
CC(C)(c1ccc(Br)cc1)c1csc(NC(=O)NCc2ccnc(N3CCNCC3)c2F)n1 [Example A207, 1-(4-(2-(4-bromophenyl)propan-2-yl)thiazol-2-yl)-3-((3-fluoro-2-(piperazin-1-yl)pyridin-4-yl)methyl)urea]	99	2180	
C#CC(C)(c1ccc(OC)cc1)c1csc(NC(=O)NCCO)n1 (centres unmarked) [Example A168, 1-(2-hydroxyethyl)-3-(4-(2-(4-methoxyphenyl)but-3-yn-2-yl)thiazol-2-yl)urea]	27	400	
COc1ccc(C(C)(C)c2csc(NC(=O)NCCCS(N)(=O)=O)n2)cc1 [Example A138, 3-(3-(4-(2-(4-methoxyphenyl)propan-2-yl)thiazol-2-yl)ureido)propane-1-sulfonamide]	97	2380	
C#C[C@](C)(c1ccc(Br)cc1)c1csc(NC(=O)N2CC(CO)C2)n1 [Example A166, (R)-N-(4-(2-(4-bromophenyl)but-3-yn-2-yl)thiazol-2-yl)-3-(hydroxymethyl)azetidine-1-carboxamide]	25	5710	
COc1ccc(C(C)(C)c2csc(NC(=O)NCCCCN3CCC(N)C3)n2)cc1 (centres unmarked) [Example A077, 1-(4-(3-aminopyrrolidin-1-yl)butyl)-3-(4-(2-(4-methoxyphenyl)propan-2-yl)thiazol-2-yl)urea]	180	2970	
C#C[C@](C)(c1ccc(Cl)cc1)c1csc(NC(=O)NCC2(O)CNC2)n1 (stereo in doubt) [Example A286, 1-(4-(2-(4-chlorophenyl)but-3-yn-2-yl)thiazol-2-yl)-3-((3-hydroxyazetidin-3-yl)methyl)urea]	495	15400	
COc1ccc(C(C)(C)c2csc(NC(=O)NCCCN3CCC(N)C3)n2)cc1 (centres unmarked) [Example A226, 1-(3-(3-aminopyrrolidin-1-yl)propyl)-3-(4-(2-(4-methoxyphenyl)propan-2-yl)thiazol-2-yl)urea]	100	4820	
CC(O)(c1ccc(Br)cc1)c1csc(NC(=O)NCc2ccc(N3CCNCC3)c(F)c2)n1 (centres unmarked) [Example A056, 1-(4-(1-(4-bromophenyl)-1-hydroxyethyl)thiazol-2-yl)-3-(3-fluoro-4-(piperazin-1-yl)benzyl)urea]	176	1060	
COc1ccc(C(C)(C)c2csc(NC(=O)NCc3ccc(NCCO)nc3)n2)cc1 [Example A014, 1-((6-((2-hydroxyethyl)amino)pyri-din-3-yl)methyl)-3-(4-(2-(4-methoxyphenyl)propan-2-yl)thiazol-2-yl)urea]	160	880	
CC(C)(c1ccc(Br)cc1)c1csc(NC(=O)NCc2ccc(NCCN)c(F)c2)n1 [Example A198, 1-(4-((2-aminoethyl)amino)-3-fluorobenzyl)-3-(4-(2-(4-bromophenyl)propan-2-yl)thiazol-2-yl)urea]	18	1320	
C#CC(C)(c1ccc(Cl)cc1)c1csc(NC(=O)NCC(C)(C)O)n1 (centres unmarked) [Example A268, 1-(4-(2-(4-chlorophenyl)but-3-yn-2-yl)thiazol-2-yl)-3-(2-hydroxy-2-methylpropyl)urea]	218	1310	
CNS(=O)(=O)CCCNC(=O)Nc1nc(C(C)(C)c2ccc(OC)cc2)cs1 [Example A148, 3-(3-(4-(2-(4-methoxyphenyl)propan-2-yl)thiazol-2-yl)ureido)-N-methylpropane-1-sulfonamide]	45	850	
COc1ccc(C(C)(C)c2csc(NC(=O)NCc3ccc(C(=O)NCCN)nc3)n2)cc1 [Example A203, N-(2-aminoethyl)-5-((3-(4-(2-(4-methoxyphenyl)propan-2-yl)thiazol-2-yl)ureido)methyl)picolin-amide]	94	5700	
COc1ccc(C(C)(C)c2csc(NC(=O)NCc3ccc(C(=O)NC4CCN(C)CC4)nc3)n2)cc1 [Example A015, 5-((3-(4-(2-(4-methoxyphenyl)propan-2-yl)thiazol-2-yl)ureido)methyl)-N-(1-methylpiperidin-4-yl)picolinamide]	24		880
CCN(CC)CCCNC(=O)Nc1nc(C(C)(C)c2ccc(OC)cc2)cs1 [Example A146, 1-(3-(diethylamino)propyl)-3-(4-(2-(4-methoxyphenyl)propan-2-yl)thiazol-2-yl)urea]	124	3070	
